The structures appear in SMILES notation.

The assay deals with EGFR (Human), P00533 [T790M/L858R]. As to conditions: nci-h1975.
Chain of EGFR (Human), P00533 [T790M/L858R] (P00533 whole entry T790M/L858R, looked up): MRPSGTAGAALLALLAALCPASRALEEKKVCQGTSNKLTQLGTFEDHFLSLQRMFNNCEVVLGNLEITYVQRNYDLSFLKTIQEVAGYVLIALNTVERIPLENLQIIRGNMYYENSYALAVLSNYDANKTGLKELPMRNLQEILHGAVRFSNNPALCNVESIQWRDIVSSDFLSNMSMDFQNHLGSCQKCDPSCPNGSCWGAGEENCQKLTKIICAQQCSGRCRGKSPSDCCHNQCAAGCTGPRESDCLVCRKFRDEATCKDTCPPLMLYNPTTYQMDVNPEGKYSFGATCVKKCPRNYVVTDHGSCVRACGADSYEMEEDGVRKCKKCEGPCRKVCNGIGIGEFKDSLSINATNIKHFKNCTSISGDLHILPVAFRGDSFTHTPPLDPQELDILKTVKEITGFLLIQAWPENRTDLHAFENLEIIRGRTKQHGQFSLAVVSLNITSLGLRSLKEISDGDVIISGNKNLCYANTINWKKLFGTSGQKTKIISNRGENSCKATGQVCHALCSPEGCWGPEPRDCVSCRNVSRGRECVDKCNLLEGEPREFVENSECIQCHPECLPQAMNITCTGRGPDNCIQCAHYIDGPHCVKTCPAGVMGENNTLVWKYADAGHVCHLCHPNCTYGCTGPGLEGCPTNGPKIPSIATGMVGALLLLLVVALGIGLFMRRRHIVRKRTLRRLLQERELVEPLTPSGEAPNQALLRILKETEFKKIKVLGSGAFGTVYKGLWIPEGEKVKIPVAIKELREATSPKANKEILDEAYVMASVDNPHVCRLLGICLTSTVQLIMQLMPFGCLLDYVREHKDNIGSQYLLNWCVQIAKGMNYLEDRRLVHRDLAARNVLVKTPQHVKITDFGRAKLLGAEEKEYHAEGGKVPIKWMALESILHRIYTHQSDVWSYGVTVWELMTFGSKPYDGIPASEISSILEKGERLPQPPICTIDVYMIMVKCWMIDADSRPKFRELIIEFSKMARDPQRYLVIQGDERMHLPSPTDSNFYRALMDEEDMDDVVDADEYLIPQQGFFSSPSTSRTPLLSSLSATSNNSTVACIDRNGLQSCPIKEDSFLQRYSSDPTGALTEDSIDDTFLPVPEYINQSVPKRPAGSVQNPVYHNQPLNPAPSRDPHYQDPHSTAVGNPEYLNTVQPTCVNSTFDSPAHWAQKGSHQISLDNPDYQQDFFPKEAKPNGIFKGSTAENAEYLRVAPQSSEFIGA
In turn, `C=CC(=O)Nc1cccc(Oc2nc(Nc3ccc(N4CCN(C(=O)N5CCOCC5)CC4)cc3)nc3ccsc23)c1` returned a 50% growth inhibitory concentration (GI50) of 50 to 100 nM.

`C=CC(=O)Nc1cccc(Oc2nc(Nc3ccc(N4CCNCC4)cc3)nc3ccsc23)c1` had a GI50 of 100 to 1000 nM.

For `C=CC(=O)Nc1cccc(Nc2nc(Nc3ccc(CN4CCCCC4)cc3OC)nc3ccsc23)c1`, the GI50 lay in the range of 50 to 100 nM.

The compound `C=CC(=O)Nc1cccc(Oc2nc(Nc3ccc(OC4CCN(CC)CC4)cc3)nc3ccsc23)c1` gave a GI50 of at most 50 nM.

As for `C=CC(=O)Nc1cccc(Oc2nc(Nc3ccc(N4CCN(C5CCN(C)CC5)CC4)nc3)nc3ccsc23)c1`, the concentration for 50% growth inhibition (GI50) is at most 50 nM.

`C=CC(=O)Nc1cccc(Oc2nc(Nc3ccc(N4CCC(CN5CCCCC5)CC4)cc3)nc3ccsc23)c1`: the GI50 is at most 50 nM.

Take `C=CC(=O)Nc1cccc(Oc2nc(Nc3ccc(N4CCN(C)CC4)c(F)c3)nc3ccsc23)c1`: the concentration for 50% growth inhibition (GI50) is at most 50 nM.

`C=CC(=O)Nc1cccc(Oc2nc(Nc3ccc(CN4CCN(CC5CC5)CC4)cc3)nc3ccsc23)c1` gave a GI50 of at most 50 nM.

The compound `C=CC(=O)Nc1cccc(Oc2nc(Nc3ccc(N4CCN(CC)CC4)cn3)nc3ccsc23)c1` registered a 50% growth inhibitory concentration (GI50) of at most 50 nM.

In turn, `C=CC(=O)Nc1cccc(Oc2nc(Nc3ccc(C(=O)NCCN4CCCC4)cc3)nc3ccsc23)c1` registered a GI50 of at most 50 nM.

The compound `C=CC(=O)Nc1cccc(Oc2nc(Nc3ccc(N4CCN(CCF)CC4)cc3)nc3ccsc23)c1` came in with a concentration for 50% growth inhibition (GI50) of 50 to 100 nM.

For the compound `C=CC(=O)Nc1cccc(Oc2nc(Nc3ccc(N4CCN(S(=O)(=O)CC)CC4)cc3)nc3ccsc23)c1`, the GI50 was 50 to 100 nM.

For the compound `C=CC(=O)Nc1cccc(Oc2nc(Nc3ccc(OCCOC)cc3)nc3ccsc23)c1`, the 50% growth inhibitory concentration (GI50) is at most 50 nM.

`C=CC(=O)Nc1cccc(Oc2nc(Nc3ccc(N4CCN(CC(F)F)CC4)cc3)nc3ccsc23)c1`: the GI50 was at most 50 nM.

Turning to `C=CC(=O)Nc1cccc(Oc2nc(Nc3ccc(N4CCN(C)CC4)cc3OC)nc3ccsc23)c1`, the concentration for 50% growth inhibition (GI50) fell in the range of 50 to 100 nM.

The compound `C=CC(=O)Nc1cccc(Oc2nc(Nc3ccc(NC4CCN(C)CC4)c(F)c3)nc3ccsc23)c1` returned a GI50 of at most 50 nM.

With `C=CC(=O)Nc1cccc(Oc2nc(Nc3ccc(C(=O)N(C)C)cc3)nc3ccsc23)c1`, the concentration for 50% growth inhibition (GI50) fell in the range of 50 to 100 nM.

The compound `C=CC(=O)Nc1cccc(Oc2nc(Nc3ccc(C(=O)N4CCN(CC)CC4)cc3)nc3ccsc23)c1` yielded a GI50 of at most 50 nM.

`C=CC(=O)Nc1cccc(Oc2nc(Nc3ccc(CCN4CCN(S(C)(=O)=O)CC4)cc3)nc3ccsc23)c1` came in with a GI50 of at most 50 nM.

Take `C=CC(=O)Nc1cccc(Oc2nc(Nc3ccc(C(=O)NC)cc3)nc3ccsc23)c1`: the GI50 was in the range of 50 to 100 nM.

As to `C=CC(=O)Nc1cccc(Oc2nc(Nc3ccc(N4CCC(N(C)C)CC4)cc3)nc3ccsc23)c1`, the GI50 was at most 50 nM.

Consider `C=CC(=O)Nc1cccc(Oc2nc(Nc3ccc(C=CCN4CCCCC4)cc3)nc3ccsc23)c1`, for which the concentration for 50% growth inhibition (GI50) lay in the range of 50 to 100 nM.

`C=CC(=O)Nc1cccc(Oc2nc(Nc3ccc(S(=O)(=O)N4CCN(CC)CC4)cc3)nc3ccsc23)c1` returned a GI50 of 50 to 100 nM.

Compound `C=CC(=O)Nc1cccc(Oc2nc(Nc3ccc(OCCN4CCOCC4)c(F)c3)nc3ccsc23)c1` gave a concentration for 50% growth inhibition (GI50) of at most 50 nM.

`C=CC(=O)Nc1cccc(Oc2nc(Nc3ccc(O)cc3)nc3ccsc23)c1`: the GI50 was in the range of 100 to 1000 nM.

For the compound `C=CC(=O)Nc1cccc(Oc2nc(Nc3ccc(C[S+](C)[O-])cc3)nc3ccsc23)c1` (stereo unspecified), the 50% growth inhibitory concentration (GI50) is at most 50 nM.

As for `C=CC(=O)Nc1cccc(Nc2nc(Nc3ccc(N4CCN(C(C)C)CC4)cc3)nc3ccsc23)c1`, the GI50 is at most 50 nM.

On to `C=CC(=O)Nc1cccc(Sc2nc(Nc3ccc(N4CCOCC4)c(F)c3)nc3ccsc23)c1`, for which the GI50 is at most 50 nM.

Compound `C=CC(=O)Nc1cccc(Oc2nc(Nc3ccc(CN4CCN(C)CC4)nc3)nc3ccsc23)c1` had a GI50 of 50 to 100 nM.

For the compound `C=CC(=O)Nc1cccc(Nc2nc(Nc3ccc(OCCN(C)C)cc3)nc3ccsc23)c1`, the GI50 was at most 50 nM.

As for `C=CC(=O)Nc1cccc(Nc2nc(Nc3ccc(CCN(C)C)cc3)nc3ccsc23)c1`, the GI50 was at most 50 nM.

`C=CC(=O)Nc1cccc(Oc2nc(Nc3ccc(N4CCC(N5CCCC5)CC4)c(Cl)c3)nc3ccsc23)c1` came in with a concentration for 50% growth inhibition (GI50) of at most 50 nM.

Turning to `C=CC(=O)Nc1cccc(Oc2nc(Nc3ccc(N4CCC(N5CCN(CC)CC5)CC4)cc3)nc3ccsc23)c1`, the 50% growth inhibitory concentration (GI50) is 100 to 1000 nM.

For the compound `C=CC(=O)Nc1cccc(Oc2nc(Nc3ccc(N4CCN(CCO)CC4)cc3)nc3ccsc23)c1`, the GI50 was at most 50 nM.

Consider `C=CC(=O)Nc1cccc(Nc2nc(Nc3ccc(C4CCN(C)CC4)cc3)nc3ccsc23)c1`, for which the GI50 is at most 50 nM.

With `C=CC(=O)Nc1cccc(Nc2nc(Nc3ccc(C4CCN(C)CC4)c(F)c3)nc3ccsc23)c1`, the concentration for 50% growth inhibition (GI50) is at most 50 nM.

`C=CC(=O)Nc1cccc(Oc2nc(Nc3ccc(OCCN(C)C)cc3)nc3ccsc23)c1` displayed a GI50 of at most 50 nM.

`C=CC(=O)Nc1cccc(Oc2nc(Nc3ccc(OCCN(C)C)c(F)c3)nc3ccsc23)c1` registered a GI50 of at most 50 nM.

As for `C=CC(=O)Nc1cccc(Oc2nc(Nc3ccc(CS(C)(=O)=O)cc3)nc3ccsc23)c1`, the concentration for 50% growth inhibition (GI50) is at most 50 nM.

In turn, `C=CC(=O)Nc1cccc(Oc2nc(Nc3ccc(C4CCCN(C)C4)cc3OC)nc3ccsc23)c1` (stereo unspecified) showed a concentration for 50% growth inhibition (GI50) of at most 50 nM.

Regarding `C=CC(=O)Nc1cccc(Oc2nc(Nc3ccc(C4CCN(C)CC4)c(Cl)c3)nc3ccsc23)c1`, the GI50 fell in the range of 50 to 100 nM.

For the compound `C=CC(=O)Nc1cccc(Oc2nc(Nc3ccc(N4CCN(C)CC4)c(F)c3OC)nc3ccsc23)c1`, the concentration for 50% growth inhibition (GI50) is at most 50 nM.

With `C=CC(=O)Nc1cccc(Oc2nc(Nc3ccc(N4CCC(CN(C)C)CC4)cc3)nc3ccsc23)c1`, the GI50 was at most 50 nM.

`C=CC(=O)Nc1cccc(Oc2nc(Nc3ccc(OCCN(CC)CC)c(F)c3)nc3ccsc23)c1` registered a GI50 of at most 50 nM.

`C=CC(=O)Nc1cccc(Oc2nc(Nc3ccc(N4CCC(N5CCOCC5)CC4)c(F)c3)nc3ccsc23)c1` registered a GI50 of at most 50 nM.

For `C=CC(=O)Nc1cccc(Oc2nc(Nc3ccc(C(C)=O)cc3)nc3ccsc23)c1`, the GI50 is at most 50 nM.

In the case of `C=CC(=O)Nc1cccc(Oc2nc(Nc3ccc(CN4CCN(C)CC4)c(F)c3)nc3ccsc23)c1`, the GI50 is at most 50 nM.

`C=CC(=O)Nc1cccc(Oc2nc(Nc3ccc(C4CCCN(C)C4)c(F)c3)nc3ccsc23)c1` (stereo unspecified) returned a GI50 of at most 50 nM.

For the compound `C=CC(=O)Nc1cccc(Oc2nc(Nc3ccc(N4CCOCC4)cc3)nc3ccsc23)c1`, the GI50 is at most 50 nM.

With `C=CC(=O)Nc1cccc(Oc2nc(Nc3ccc(N4CCN(C)CC4)c(C)c3)nc3ccsc23)c1`, the concentration for 50% growth inhibition (GI50) was at most 50 nM.

In the case of `C=CC(=O)Nc1cccc(Nc2nc(Nc3ccc(OCCCN(C)C)cc3)nc3ccsc23)c1`, the GI50 lay in the range of 50 to 100 nM.

Turning to `C=CC(=O)Nc1cccc(Oc2nc(Nc3ccc(N4CCC(N5CCOCC5)CC4)cc3)nc3ccsc23)c1`, the concentration for 50% growth inhibition (GI50) is at most 50 nM.

Compound `C=CC(=O)Nc1cccc(Oc2nc(Nc3ccc(CP(=O)(OC)OC)cc3)nc3ccsc23)c1` showed a GI50 of at most 50 nM.

Take `C=CC(=O)Nc1cccc(Nc2nc(Nc3ccc(N4CCN(C)CC4)c(F)c3)nc3ccsc23)c1`: the concentration for 50% growth inhibition (GI50) was at most 50 nM.

With `C=CC(=O)Nc1cccc(Oc2nc(Nc3ccc(N4CC[C@@H](n5ccnc5)C4)cc3)nc3ccsc23)c1`, the concentration for 50% growth inhibition (GI50) is at most 50 nM.

For the compound `C=CC(=O)Nc1cccc(Oc2nc(Nc3ccc(N4CC5CC4CN5C)cc3)nc3ccsc23)c1` (stereo unspecified), the GI50 is at most 50 nM.

Compound `C=CC(=O)Nc1cccc(Oc2nc(Nc3ccc(C(=O)NC4CCN(C)CC4)c(Cl)c3)nc3ccsc23)c1` came in with a concentration for 50% growth inhibition (GI50) of at most 50 nM.

`C=CC(=O)Nc1cccc(Oc2nc(Nc3ccc(C4CCN(CC)CC4)cc3)nc3ccsc23)c1` showed a concentration for 50% growth inhibition (GI50) of at most 50 nM.

In the case of `C=CC(=O)Nc1cccc(Oc2nc(Nc3ccc(NCCN(C)C)c(F)c3)nc3ccsc23)c1`, the concentration for 50% growth inhibition (GI50) is at most 50 nM.

The compound `C=CC(=O)Nc1cccc(Oc2nc(Nc3ccc(N4CCC(N5CCOCC5)CC4)c(Cl)c3)nc3ccsc23)c1` returned a GI50 of at most 50 nM.

With `C=CC(=O)Nc1cccc(Oc2nc(Nc3ccc(CN4CCN(C5CCN(C)CC5)CC4)cc3)nc3ccsc23)c1`, the GI50 was at most 50 nM.

Source of the values: the Kinase Knowledgebase extract (Sharma et al. 2016).
